In patent publication US20240207414A1, “DISULFIDE-BASED PRODRUG COMPOUND” (Ludwig-Maximilians-Universitat Munchen, priority 2021, published 2024):

Assays:
[1] = target: T1, glutathione reductase (GR) (Homo sapiens, UniProt P00390); experiment: Enzymatic activation assay: GR; assay type: biochemical; conditions: NADPH/GR
T1 sequence (P00390 44-522): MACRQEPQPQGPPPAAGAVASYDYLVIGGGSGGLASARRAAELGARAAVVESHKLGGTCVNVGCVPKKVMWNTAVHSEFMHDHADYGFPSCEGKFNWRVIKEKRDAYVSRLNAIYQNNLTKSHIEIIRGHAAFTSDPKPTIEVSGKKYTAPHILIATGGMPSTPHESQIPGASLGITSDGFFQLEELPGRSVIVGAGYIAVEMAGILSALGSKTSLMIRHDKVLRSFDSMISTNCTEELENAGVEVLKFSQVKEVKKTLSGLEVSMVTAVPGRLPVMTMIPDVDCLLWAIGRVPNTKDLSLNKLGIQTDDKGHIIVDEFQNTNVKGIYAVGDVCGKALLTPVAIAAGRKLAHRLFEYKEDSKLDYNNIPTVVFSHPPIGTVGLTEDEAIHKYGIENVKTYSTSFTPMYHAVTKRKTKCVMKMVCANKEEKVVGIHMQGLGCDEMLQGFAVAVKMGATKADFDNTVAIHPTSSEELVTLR
From the text: (§1) This assay (see FIG. 2) examined the resistance of disulfide-based reduction-triggered compounds to the major cellular enzymatic systems that maintain redox homeostasis and are capable of reducing disulfides, evaluated in a cell-free assay, to see if these compounds can be useful for selective enzyme-triggered release.
(§2) Assay conditions: A black 96-well plate with black bottom was charged with solutions of fluorophore-releasing reduction-triggered probes that are compounds of the invention (P1, P2) or that are not compounds of the invention and reveal the performance of prior art systems (X19) (50 μL; 40 μM in aq. TE buffer (pH 7.4) and 4 μL DMSO). […]
(§3) Data Representation: (F(t)-F^NADPH(t)) is the fluorescence intensity of the test solution at time t, from which is subtracted a background fluorescence level also at time t from a solution with NADPH (which itself is fluorescent, and is present in 10-fold higher concentration than the probe) and with the same protein mixture but without the probe. F^max(t) is the maximum possible fluorescence intensity value at time t, determined by incubation with TCEP (100 μM)) similarly as for the chemical reductant assay. (F(t)−F^NADPH(t))/F^max(t) thus gives the timecourse of fluorescence signal, as a fraction of the maximum possible fluorescence signal. […]

[2] = target: T2, GR/GSH/Grx (glutaredoxin 2, Grx2) (Homo sapiens, UniProt Q9NS18); experiment: Enzymatic activation assay: GR/GSH/Grx2; assay type: biochemical; conditions: full mixture NADPH/GR/GSH/Grx2
T2 sequence (Q9NS18 20-164): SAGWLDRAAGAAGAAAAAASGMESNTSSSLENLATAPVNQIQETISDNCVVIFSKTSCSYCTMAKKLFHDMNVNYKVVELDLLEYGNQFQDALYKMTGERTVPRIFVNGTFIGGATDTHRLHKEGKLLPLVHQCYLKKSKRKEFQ
From the text: as §1, §2, §3

[3] = Chemical reductant assay: DTT challenge (cell-free); assay type: physicochemical; conditions: aq. TE buffer pH 7.4, 37° C., 6 h
From the text: This assay (see FIG. 1) examined the stability of disulfide-based reduction-triggered compounds of the invention when exposed to monothiol reductants, primarily the major physiological cellular monothiol GSH, and dithiol reductants like the disulfide reductant dithiothreitol (DTT), as evaluated in a cell-free assay, to determine whether these compounds can be useful for selective release.
Assay Conditions: A black 96-well plate with black bottom was charged with solutions of fluorophore-releasing reduction-triggered probes that are compounds of the invention (P1, P2, P3, P4 and P5) or that are not compounds of the invention and reveal the performance of prior art systems (X19) (80 μL; 25 μM in aq. TE buffer (pH 7.4) and 1.25% vol DMSO). Solutions of challenge species chosen from the monothiol glutathione (GSH, 0.1-50 mM) and the dithiol reductant dithiothreitol (DTT, 0.1-50 mM) or phosphine reductant tris-(2-carboxyethyl) phosphine (TCEP); (20 μL; 1 mM in aq. TE buffer (pH 7.4) were added and the reaction mixtures were incubated at 37° C. for 6 h while measuring fluorescence intensity over time [F(t)] using a BMG Labtech FLUOstar Omega platereader (λexc=355 nm, Δem=530 nm for PQ-OH-releasing probes X19, P1 and P2; Δexc=485 nm, Δem=530 nm for MF-OH-releasing probes P3 and P4.
Data Representation: F^max is the maximum possible fluorescence increase corresponding to complete reduction-triggered cargo release, i.e. the fluorescence intensity increase from time zero to signal plateau under TCEP incubation PQ-OH-releasing probes. F(t)/F^max(t) thus gives the timecourse measurements of fluorescence intensity, as a fraction of the maximum possible fluorescence signal. F^sat is the endpoint fluorescence intensity increase for each condition, ie. F^sat=(F(6 h)). F^sat/F^max thus gives the assay endpoint fluorescence intensity increase, as a fraction of the maximum possible fluorescence signal. In the GSH timecourse measurements shown in FIG. 1, all datasets annotated with concentrations only (0.01-10 mM) refer to GSH challenges, while datasets for TCEP positive control (100 μM) and no-reductant control (blank) are shown for comparison. The dose-response plots show F^sat/F^max for the different ratios between probe and GSH or probe and DTT concentrations, with a logarithmic horizontal scale.

| Structure (SMILES) | cargo release / processing by oxidoreductase GR [1] | cargo release / processing by GR/GSH/Grx2 [2] | activation / cargo release by dithiol reductant DTT [3] |
| --- | --- | --- | --- |
| O=C(Oc1ccc(Cl)cc1-c1nc2ccc(Cl)cc2c(=O)[nH]1)N1CCC[C@@H]2CSSC[C@@H]21 (racemic) [Compound P2, 4-chloro-2-(6-chloro-4-oxo-3,4-dihydroquinazolin-2-yl)phenyl-(cis)-hexahydro-[1,2]dithiino[4,5-b]pyridine-1(2H)-carboxylate] | resist | only processed by high levels of Grx1 and Grx2 | efficiently activated by dithiol-type reductants |
| O=C(Oc1ccc(Cl)cc1-c1nc2ccc(Cl)cc2c(=O)[nH]1)N1CCC[C@@H]2CSSC[C@H]21 (racemic) [Compound P1, 4-chloro-2-(6-chloro-4-oxo-3,4-dihydroquinazolin-2-yl)phenyl-(trans)-hexahydro-[1,2]dithiino[4,5-b]pyridine-1(2H)-carboxylate] | resist | only processed by high levels of Grx1 and Grx2 | efficiently activated by dithiol-type reductants |
